The term IC50 denotes the concentration needed to halve the response being measured.

The source of these data is ChEMBL document CHEMBL3352554, “Synthesis and structure-activity relationships of 4-fluorophenyl-imidazole p38α MAPK, CK1δ and JAK2 kinase inhibitors” (Bioorg Med Chem Lett, 2014).

Test [1] is filed under the species Homo sapiens. Put plainly: Selectivity ratio of IC50 for p38alpha MAPK (unknown origin) to IC50 for CK1-delta (unknown origin).
In test [2] the target is T1, Mitogen-activated protein kinase 14 (Homo sapiens, UniProt Q16539). Put plainly: Inhibition of p38alpha MAPK in TNF-alpha-induced HUVEC assessed as downregulation of VCAM-1 mRNA expression at 10 uM incubated for 4 hrs by RT-PCR analysis. The format is cell-based.
T1 sequence (Q16539 whole entry): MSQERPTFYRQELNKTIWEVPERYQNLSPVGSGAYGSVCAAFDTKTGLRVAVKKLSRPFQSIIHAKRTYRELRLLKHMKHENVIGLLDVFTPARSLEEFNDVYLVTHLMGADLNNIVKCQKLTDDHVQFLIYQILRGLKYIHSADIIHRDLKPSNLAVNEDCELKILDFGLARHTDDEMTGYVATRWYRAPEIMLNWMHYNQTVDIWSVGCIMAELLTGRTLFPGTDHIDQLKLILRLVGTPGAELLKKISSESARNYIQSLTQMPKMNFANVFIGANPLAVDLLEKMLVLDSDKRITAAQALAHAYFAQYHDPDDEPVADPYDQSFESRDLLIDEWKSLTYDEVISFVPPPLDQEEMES
The target in test [3] is T1, Mitogen-activated protein kinase 14. Put plainly: Inhibition of p38alpha MAPK in TNF-alpha-induced HUVEC assessed as downregulation of IL-6 mRNA expression at 10 uM incubated for 4 hrs by RT-PCR analysis. The format is cell-based.
The species named for test [4] is Homo sapiens. Put plainly: Selectivity ratio of IC50 for p38alpha MAPK (unknown origin) to IC50 for JAK2 (unknown origin).
Test [5] concerns the target T2, Tyrosine-protein kinase JAK3 (Homo sapiens, UniProt P52333).
T2 sequence (P52333 whole entry): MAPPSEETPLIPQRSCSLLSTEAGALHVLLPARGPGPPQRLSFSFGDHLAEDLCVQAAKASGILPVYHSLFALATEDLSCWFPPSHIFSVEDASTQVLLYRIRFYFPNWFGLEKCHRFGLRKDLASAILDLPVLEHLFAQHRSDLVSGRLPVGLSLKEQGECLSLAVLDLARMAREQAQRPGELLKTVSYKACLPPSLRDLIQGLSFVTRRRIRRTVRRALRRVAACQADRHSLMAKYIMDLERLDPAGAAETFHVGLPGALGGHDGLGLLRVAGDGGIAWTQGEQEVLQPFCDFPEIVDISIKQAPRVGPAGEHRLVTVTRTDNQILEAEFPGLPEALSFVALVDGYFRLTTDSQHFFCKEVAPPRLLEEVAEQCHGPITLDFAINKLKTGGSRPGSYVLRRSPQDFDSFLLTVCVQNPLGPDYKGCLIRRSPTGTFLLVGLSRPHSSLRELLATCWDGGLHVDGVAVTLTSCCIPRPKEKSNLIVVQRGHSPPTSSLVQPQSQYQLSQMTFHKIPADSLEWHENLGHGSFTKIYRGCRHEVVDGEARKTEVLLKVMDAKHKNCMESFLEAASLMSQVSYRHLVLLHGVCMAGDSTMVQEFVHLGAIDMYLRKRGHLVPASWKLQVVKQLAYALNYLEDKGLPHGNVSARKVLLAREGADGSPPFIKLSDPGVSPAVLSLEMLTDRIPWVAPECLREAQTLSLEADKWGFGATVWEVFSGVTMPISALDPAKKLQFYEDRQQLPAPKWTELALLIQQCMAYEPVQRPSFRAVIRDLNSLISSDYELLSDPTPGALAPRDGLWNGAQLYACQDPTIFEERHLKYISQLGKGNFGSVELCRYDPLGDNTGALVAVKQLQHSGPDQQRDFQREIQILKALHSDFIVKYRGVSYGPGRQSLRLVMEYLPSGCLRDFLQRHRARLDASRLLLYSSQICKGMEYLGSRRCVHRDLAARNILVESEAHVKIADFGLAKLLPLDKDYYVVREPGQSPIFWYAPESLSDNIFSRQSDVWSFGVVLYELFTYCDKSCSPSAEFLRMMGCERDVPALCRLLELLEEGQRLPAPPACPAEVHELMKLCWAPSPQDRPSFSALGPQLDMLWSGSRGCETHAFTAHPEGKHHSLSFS
The test can be described thus: Inhibition of JAK3 (unknown origin) by radiometric assay.

Test [6] has as its target Tyrosine-protein kinase JAK1 (Homo sapiens, UniProt P23458). The test can be described thus: Inhibition of JAK1 (unknown origin) by radiometric assay.
Test [7] addresses Casein kinase I isoform delta (Homo sapiens, UniProt P48730). Put plainly: Inhibition of CK1-delta (unknown origin) by radiometric assay.
Test [8] concerns the target T1, Mitogen-activated protein kinase 14. Put plainly: Inhibition of p38alpha MAPK (unknown origin) by radiometric assay.
The target is the same in test [9]. The test can be described thus: Inhibition of p38alpha MAPK in TNF-alpha-induced HUVEC assessed as downregulation of COX-2 mRNA expression at 10 uM incubated for 4 hrs by RT-PCR analysis. Format: cell-based.
The target of test [10] is Tyrosine-protein kinase JAK2 (Homo sapiens, UniProt O60674). The test can be described thus: Inhibition of JAK2 (unknown origin) by radiometric assay.
Tyrosine-protein kinase JAK2, sequence (O60674 whole entry): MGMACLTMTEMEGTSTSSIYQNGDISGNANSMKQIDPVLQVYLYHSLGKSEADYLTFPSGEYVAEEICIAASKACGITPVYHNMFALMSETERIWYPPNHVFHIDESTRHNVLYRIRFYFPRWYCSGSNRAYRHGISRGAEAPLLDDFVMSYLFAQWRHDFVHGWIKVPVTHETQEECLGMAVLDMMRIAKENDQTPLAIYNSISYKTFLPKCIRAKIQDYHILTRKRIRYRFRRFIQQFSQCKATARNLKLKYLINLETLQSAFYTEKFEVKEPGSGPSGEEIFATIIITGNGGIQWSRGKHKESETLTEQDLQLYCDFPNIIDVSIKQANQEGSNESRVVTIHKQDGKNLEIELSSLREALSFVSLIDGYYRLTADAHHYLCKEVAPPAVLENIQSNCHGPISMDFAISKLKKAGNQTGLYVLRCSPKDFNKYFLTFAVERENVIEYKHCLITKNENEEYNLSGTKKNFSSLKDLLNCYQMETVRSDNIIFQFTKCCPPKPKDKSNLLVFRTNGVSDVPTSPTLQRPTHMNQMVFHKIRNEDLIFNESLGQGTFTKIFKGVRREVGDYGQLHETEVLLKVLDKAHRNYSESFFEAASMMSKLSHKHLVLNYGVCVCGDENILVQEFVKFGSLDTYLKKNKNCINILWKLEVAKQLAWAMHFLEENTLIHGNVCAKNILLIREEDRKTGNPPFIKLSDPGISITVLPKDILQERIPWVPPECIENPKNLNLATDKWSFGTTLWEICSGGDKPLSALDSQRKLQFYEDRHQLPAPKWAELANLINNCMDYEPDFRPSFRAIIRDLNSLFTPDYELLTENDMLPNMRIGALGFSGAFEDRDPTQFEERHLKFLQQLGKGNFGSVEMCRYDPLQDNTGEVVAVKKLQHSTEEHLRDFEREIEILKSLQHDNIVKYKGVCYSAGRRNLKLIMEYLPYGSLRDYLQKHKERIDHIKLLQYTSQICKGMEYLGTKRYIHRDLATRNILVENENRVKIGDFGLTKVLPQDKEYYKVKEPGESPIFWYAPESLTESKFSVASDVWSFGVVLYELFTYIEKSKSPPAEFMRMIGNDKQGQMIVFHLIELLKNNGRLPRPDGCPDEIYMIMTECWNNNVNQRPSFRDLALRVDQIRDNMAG

Active and inactive are the calls of the source. No cut-off for these calls is given here.

Tyrosine-protein kinase JAK1, sequence (P23458 whole entry, canonical isoform): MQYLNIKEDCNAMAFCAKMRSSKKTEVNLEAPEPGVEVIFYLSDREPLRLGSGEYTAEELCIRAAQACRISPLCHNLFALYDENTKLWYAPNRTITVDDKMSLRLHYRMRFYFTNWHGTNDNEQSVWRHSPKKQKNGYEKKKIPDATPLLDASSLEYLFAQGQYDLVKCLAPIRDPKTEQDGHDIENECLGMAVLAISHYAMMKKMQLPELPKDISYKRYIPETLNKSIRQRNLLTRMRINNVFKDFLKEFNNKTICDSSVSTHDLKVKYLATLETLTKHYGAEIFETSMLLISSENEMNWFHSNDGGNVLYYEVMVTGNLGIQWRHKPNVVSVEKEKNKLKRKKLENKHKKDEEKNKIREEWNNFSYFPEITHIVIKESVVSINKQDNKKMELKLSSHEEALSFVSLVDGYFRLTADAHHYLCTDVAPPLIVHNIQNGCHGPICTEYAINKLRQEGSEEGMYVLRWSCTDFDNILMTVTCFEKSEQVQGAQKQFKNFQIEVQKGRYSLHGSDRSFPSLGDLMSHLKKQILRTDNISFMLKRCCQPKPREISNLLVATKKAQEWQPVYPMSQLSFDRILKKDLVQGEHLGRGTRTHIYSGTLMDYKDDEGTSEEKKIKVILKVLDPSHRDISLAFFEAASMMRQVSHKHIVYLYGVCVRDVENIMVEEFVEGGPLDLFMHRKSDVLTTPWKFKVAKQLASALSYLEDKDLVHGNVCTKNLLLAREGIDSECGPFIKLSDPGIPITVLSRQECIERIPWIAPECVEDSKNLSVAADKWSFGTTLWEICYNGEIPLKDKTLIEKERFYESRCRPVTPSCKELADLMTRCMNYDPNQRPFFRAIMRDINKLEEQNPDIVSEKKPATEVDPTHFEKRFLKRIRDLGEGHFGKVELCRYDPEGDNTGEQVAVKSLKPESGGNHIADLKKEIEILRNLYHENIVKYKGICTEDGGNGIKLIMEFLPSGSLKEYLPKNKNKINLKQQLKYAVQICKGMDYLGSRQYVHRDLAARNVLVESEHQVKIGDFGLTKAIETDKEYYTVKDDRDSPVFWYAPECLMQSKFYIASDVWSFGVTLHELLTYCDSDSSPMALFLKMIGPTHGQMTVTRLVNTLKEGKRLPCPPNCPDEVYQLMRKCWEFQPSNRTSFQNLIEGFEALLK
Casein kinase I isoform delta, sequence (P48730 whole entry, canonical isoform): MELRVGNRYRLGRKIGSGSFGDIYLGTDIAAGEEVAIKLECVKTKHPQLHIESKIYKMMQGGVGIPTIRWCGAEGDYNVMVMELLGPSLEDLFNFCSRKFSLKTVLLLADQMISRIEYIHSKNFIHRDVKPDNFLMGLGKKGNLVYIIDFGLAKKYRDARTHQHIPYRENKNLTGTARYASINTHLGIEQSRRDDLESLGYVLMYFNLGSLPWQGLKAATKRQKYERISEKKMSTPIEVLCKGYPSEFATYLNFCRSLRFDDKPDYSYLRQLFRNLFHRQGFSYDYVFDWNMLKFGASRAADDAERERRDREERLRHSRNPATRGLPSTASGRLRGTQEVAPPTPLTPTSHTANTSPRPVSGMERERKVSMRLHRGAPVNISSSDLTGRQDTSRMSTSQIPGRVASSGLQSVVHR

With `O=C(O)c1ccc(-c2nc(-c3ccc(F)cc3)c(-c3cc[nH]c(=O)c3)[nH]2)cc1`, the Ratio IC50 in the test listed under Homo sapiens [1] and in the test listed under Homo sapiens [4] was 10 throughout. In addition, the inhibition result in test [2], in test [3] and in test [9] was “inactive” in each case. Also, the IC50 was determined as 3.9 µM in test [5]; 14.1 µM in test [6]; 24.8 µM in test [7]; 2.94 µM in test [8]; 0.274 µM in test [10].
